Data taken from the NIST ThermoML archive (doi:10.1016/j.jct.2013.08.021).

Experiments:
[1] = refractive index (Na D-line) (dimensionless); settings: 101 kPa, Liquid, Standard Abbe refractometry
[2] = molar heat capacity at constant pressure; settings: 101 kPa, Liquid, Small sample (50 mg) DSC
[3] = refractive index (Na D-line) (dimensionless); xn = mol fraction of the nth substance listed; settings: 101 kPa, Liquid, Standard Abbe refractometry
[4] = xn = mol fraction of the nth substance listed; settings: 101 kPa, Liquid; for speed of sound: Sing-around technique in a fixed-path interferometer; for mass density: Vibrating tube method

CCC[N+]1(C)CCCC1.O=S(=O)([N-]S(=O)(=O)C(F)(F)F)C(F)(F)F
Settings	molar heat capacity at constant pressure, [2] [J/K/mol]	refractive index, [1]
293.15 K	–	1.42208
298.15 K	–	1.42069
303.15 K	–	1.41928
308.15 K	–	1.41787
313.15 K	541	1.41644
314.15 K	544	–
315.15 K	548	–
316.15 K	551	–
317.15 K	554	–
318.15 K	556	1.415
319.15 K	559	–
320.15 K	561	–
321.15 K	563	–
322.15 K	565	–
323.15 K	567	1.41354
324.15 K	569	–
325.15 K	571	–
326.15 K	573	–
327.15 K	575	–
328.15 K	576	1.41212
329.15 K	578	–
330.15 K	579	–
331.15 K	581	–
332.15 K	582	–
333.15 K	584	1.41073
334.15 K	585	–
335.15 K	586	–
336.15 K	588	–
337.15 K	589	–
338.15 K	590	1.40932
339.15 K	591	–
340.15 K	593	–
341.15 K	594	–
342.15 K	595	–
343.15 K	597	1.40796
344.15 K	598	–
345.15 K	599	–
346.15 K	600	–
347.15 K	601	–
348.15 K	601	–
349.15 K	602	–
350.15 K	604	–
351.15 K	604	–
352.15 K	605	–
353.15 K	606	–

CCC[N+]1(C)CCCC1.O=S(=O)([N-]S(=O)(=O)C(F)(F)F)C(F)(F)F + CCCO
Settings	mass density, 298.15 K [kg/m3]	mass density, 303.15 K [kg/m3]	mass density, 308.15 K [kg/m3]	refractive index, 298.15 K	refractive index, 303.15 K	refractive index, 308.15 K	speed of sound, 298.15 K [m/s]	speed of sound, 303.15 K [m/s]	speed of sound, 308.15 K [m/s]
[3], x2 = 0	–	–	–	1.42064	1.41926	1.41782	–	–	–
[3], x2 = 0.0938	–	–	–	1.41963	1.41825	1.41678	–	–	–
[3], x2 = 0.1942	–	–	–	1.41841	1.41693	1.4155	–	–	–
[3], x2 = 0.3092	–	–	–	1.41669	1.41521	1.41375	–	–	–
[3], x2 = 0.3925	–	–	–	1.41523	1.41377	1.41227	–	–	–
[3], x2 = 0.5031	–	–	–	1.41287	1.41135	1.40984	–	–	–
[3], x2 = 0.6035	–	–	–	1.41013	1.40858	1.40703	–	–	–
[3], x2 = 0.6084	–	–	–	1.40996	1.40837	1.40681	–	–	–
[3], x2 = 0.6973	–	–	–	1.40685	1.40519	1.40364	–	–	–
[3], x2 = 0.8048	–	–	–	1.40163	1.40019	1.39885	–	–	–
[3], x2 = 0.8994	–	–	–	1.39494	1.39356	1.39205	–	–	–
[3], x2 = 0.9465	–	–	–	1.39023	1.38843	1.38653	–	–	–
[4], x2 = 0	1427.86	1423.26	1418.83	–	–	–	1270.6	1259.5	1248.6
[4], x2 = 0.0938	1411.16	1406.64	1402.12	–	–	–	1265.5	1254.3	1243.4
[4], x2 = 0.1942	1390.36	1385.82	1381.28	–	–	–	1259.2	1248	1236.8
[4], x2 = 0.3092	1361.8	1357.24	1352.68	–	–	–	1250.8	1239.4	1228.1
[4], x2 = 0.3925	1336.96	1332.37	1327.8	–	–	–	1243.8	1232.2	1220.8
[4], x2 = 0.5031	1296.59	1291.99	1287.39	–	–	–	1233	1221.2	1209.4
[4], x2 = 0.6035	1249.57	1244.97	1240.35	–	–	–	1221.4	1209.3	1197.2
[4], x2 = 0.6084	1246.93	1242.32	1237.71	–	–	–	1220.8	1208.7	1196.6
[4], x2 = 0.6973	1192.26	1187.68	1183.08	–	–	–	1209.2	1196.7	1184.2
[4], x2 = 0.8048	1102.79	1098.29	1093.76	–	–	–	1194.6	1181.5	1168.3
[4], x2 = 0.8994	988.76	984.42	980.03	–	–	–	1187.7	1173.4	1159.1
[4], x2 = 0.9465	912.36	908.13	903.87	–	–	–	1192	1176.5	1161.2
